On the set-up of series [1]: method as in earlier work. The following applies: plasma; cited from earlier work.
Series [2] concerns MF patients. Description: Safety and tolerability in MF patients, part B. Type of series: in vivo, human. The procedure:
(§1) The healthy volunteers in part A were administered 2 mg/cm^2 topical bimiralisib 2% on 400 cm^2 and 2 mg/cm^2 vehicle gel (serving as placebo with identical appearance) on 100 cm^2 skin of the back once daily by the study physician for 21 consecutive days, all administered at the study site. The 19 patients in part B were randomized 1:1, with 9 assigned to active and 10 to placebo. Randomization was predefined and performed in SAS version 9.4 (SAS Institute, Cary, NC, USA) by an independent statistician, using the SAS code for the parallel, two-treatment randomization with block size 2. The investigators, study personnel, sponsor and patients were blinded for allocated treatment throughout the study. Patients randomized in the treatment group applied topical bimiralisib 2%, once daily for 42 consecutive days, whereas the control group applied the vehicle gel. During the treatment period, the patients applied the bimiralisib or vehicle themselves at home after training and instructions on day 1. After 42 days, patients with ≥15% lesion improvement by CAILS could enter a blinded extension period in which treatment was continued until day 84.
(§2) The secondary endpoint was to characterize local tolerability, safety and systemic exposure of bimiralisib by application site assessment using the Local Irritation Grading Scale (LIGS), adverse events (AEs), safety measurements and systemic pharmacokinetics.
(§3) The LIGS, a composite score of erythema, edema and desquamation, was used to assess the application site for safety or tolerability issues. In addition, safety and tolerability were evaluated by monitoring of AEs, physical examinations, vital signs, 12-lead ECGs and laboratory tests.

In series [3] the test system is early-stage MF target lesions. Description: Clinical efficacy and pharmacodynamics in early-stage MF patients (CAILS, LSCI, OCT, multispectral imaging). Type of series: in vivo, human. The procedure:
as §1
(§4) At baseline of part B, one to three MF lesions (target lesions) were chosen to define a 150–200 cm^2 treatment area. Other MF lesions were left untreated in this study. Emollients, i.e., unguentum leniens, were distributed to patients and allowed for daily use on the skin, barring the target lesion(s). In part B, patient visits to the study site were scheduled for days −42 (run-in period), 1, 14, 28, 42 (end of treatment for all patients with <15% lesion improvement), 56 and 70 (end of study). Patients continuing with the extended treatment period had three extra visits on days 84 (end of treatment), 98 and 112 (end of study). Study details are provided in the assessment schedule (Table 1, Part B).
The primary endpoint was to evaluate the efficacy of bimiralisib versus placebo after 6 weeks of treatment by the change from baseline on Composite Assessment of Index Lesion Severity (CAILS). Clinical efficacy was assessed by the CAILS per target lesion, which is a score derived from individual scores for erythema, desquamation, plaque elevation, hypo- or hyperpigmentation and lesion size. Change from baseline of the combined CAILS score for all target lesions was used to calculate the objective response rate (ORR), i.e., the number of patients with complete response (CR: 100% clearance of target lesions from baseline) and partial response (PR: 50%–99% clearance) divided by the total number of patients in the respective treatment arm. […] Target lesions were extensively characterized by the assessment of skin perfusion with laser speckle contrast imaging (LSCI, PeriCam PSI NR system, Perimed, Sweden); skin morphology (blood flow) by optical coherence tomography (OCT, VivoSight, Michelson Diagnostics, UK); and erythema, roughness and edema by a multispectral camera (Antera 3D, Miravez, Ireland). The Scarlet Red app (ScarletRed Vision, Vienna, Austria) was used by patients at home for daily photo documentation and erythema quantification of a single target lesion.
All safety and statistical calculations were conducted with SAS version 9.4 for Windows (SAS Institute, Cary, NC, USA). PK parameter calculations were conducted with R version 4.0.3 for Windows (R Foundation for Statistical Computing, Vienna, Austria). All efficacy endpoints were analyzed for both the per protocol set and full analysis set, using a mixed model analysis of covariance (ANCOVA) with treatment, time and interaction of treatment by time as fixed factors; baseline as covariate; and subject as random factor.

Series [4] has as its system healthy volunteers. The series can be described thus: Safety and tolerability in healthy volunteers, part A. Type of series: in vivo, human. Here is the method: as §1, §2, §3
Series [5] can be described thus: Cutaneous pharmacokinetics in skin punch biopsies of MF patients (MALDI-MSI). Type of series: in vivo, human. The following applies: for concentration at 6 h: human, skin punch biopsy, topical, 2 % gel, MF patients. The procedure: (§5) To investigate cutaneous pharmacokinetics in both HVs and patients, 3 mm skin punch biopsies of the treatment area were taken 6 h after the last topical application (day 21 in part A and day 42/84 in part B, respectively) and snap-frozen within 5 min after collection. Skin punch biopsies were shipped to ImaBiotech (MS Imaging Department, Lille, France) and analyzed using matrix-assisted laser desorption/ionization mass spectrometry imaging (MALDI-MSI) to spatially visualize pharmacokinetics of bimiralisib throughout the biopsy (Figure 1).
(§6) Figure 1 Method of obtaining cutaneous pharmacokinetics of bimiralisib in HVs and early-stage MF patients. (A) Bimiralisib gel 2% is applied topically, in part A at the back of six HVs and in part B at 1–3 target MF lesions. (B) A full-thickness skin punch biopsy was taken on day 21 and day 42/84, respectively, for HVs and MF patients. Skin punch biopsy was snap-frozen within 5 min, processed and cryosectioned. A single section was used for H&E staining. (C) MALDI matrix spraying. (D) Prepared samples were ionized by a laser beam. (E) Seven tesla Matrix-assisted laser desorption/ionization Fourier transform ion cyclotron resonance mass spectrometry imaging (7T-MALDI-FTICR MSI) acquisition. (F) Acquired data are analyzed and MALDI images are acquired.
(§7) Pharmacokinetics in tissue were analyzed with a validated 7T-MALDI-FTICR method with a lower limit of quantification of 62 ng/g of tissue and an assay sensitivity of […] (lower limit of detection). Pharmacokinetic data below the lower limit of quantification but above the limit of detection were interpolated and used in the analysis.

The nature of series [6]: Systemic pharmacokinetics in plasma of early-stage MF patients (UPLC-MS/MS), part B. The series is classed as in vivo, human. The procedure:
as §1, §4
(§8) Blood samples for determination of bimiralisib levels in plasma of HVs were collected predose and at 1, 3, 6 and 24 h on days 7, 14 and 21 of application in part A. In part B, PK blood samples from patients were collected predose and at 1, 2, 3 and 6 h after dosing on day 42 (or on day 84 in case of participation in the extension study) of topical application.
(§9) Pharmacokinetics in plasma were analyzed with a validated ultra-performance liquid chromatography–tandem mass spectrometer method (UPLC-MS/MS) with a lower limit of quantification of 1.00 ng/mL of plasma.
(§10) Pharmacokinetic data were visualized for each subject and part separately. Due to differences in surface areas and applied doses between part A and part B, pharmacokinetic data were normalized to allow for the exploration of differences in exposure between HVs and patients after log transformation. For exploratory purposes, the applied dose was stratified by part and by number of lesions. The average concentration (Cavg) per subject was calculated based on all pharmacokinetic data of an individual combined.

A short description of series [7]: Systemic pharmacokinetics in plasma of healthy volunteers (UPLC-MS/MS), part A. Type of series: in vivo, human. The following applies: for AUC(0-t): topical, 2 mg/cm^2, HVs. The procedure: as §1, §8, §9, §10
Series [8] is described as follows: Cutaneous pharmacokinetics in skin punch biopsies of healthy volunteers (MALDI-MSI). Type of series: in vivo, human. The following applies: for Kp at 6 h / concentration at 6 h: human, topical; for Kp at 6 h: skin / plasma, 2 mg/cm^2, HVs; for concentration at 6 h: 2 mg/cm^2, HVs, day 21, 6 h after last application. Here is the method: as §5, §6, §7
Series [9] relates to CTCL cell lines. The following applies: cited from earlier work.
Series [10] has as its system CTCL patients. Also on record: method as in PMID 29233821. The conditions noted are these: oral, 19 CTCL patients; cited from earlier work.

Values joined by “and” are separate entries in the source; they are usually repeats but may differ in a detail not shown here. Equal entries are not always repeated. “Also recorded” adds a separate entry of the source. Where two headings read alike, the source gives them in different places. Bounds are passed on as bounds.

`Nc1cc(C(F)(F)F)c(-c2nc(N3CCOCC3)nc(N3CCOCC3)n2)cn1` [bimiralisib, 5-(4,6-Dimorpholino-1,3,5-triazin-2-yl)-4-(trifluoromethyl)pyridin-2-amine]: the “human no observed adverse effect level (NOAEL Cmax)” value in [1] is 96.6 ng/mL. Also, in [2] (both parts), the “vital signs, laboratory analyses, ECG, urinalysis” value is given as “did not result in any clinically significant changes”. The overall tolerability entry in series [2] (local reactions and systemic adverse events, HVs and MF patients) was “safe and well tolerated”. In addition, in [2] (part B, bimiralisib group, 2/9), the “myalgia, patients” value stood at 22.2%. In addition, the “mild dryness at the application site, patients” value in [2] (part B, bimiralisib group, day 14) is listed as 1/9. Further, in series [2] (part B, bimiralisib group, day 28), the “well-defined erythema at the application site, patients” value was “one”. Besides, the “patients with at least one AE” value in series [2] (part B, bimiralisib group, six of nine patients) is recorded as 66.7%. The “efficacy by CAILS vs placebo, in words” value in series [3] (42 days once-daily treatment, p = 0.74 over time, p = 0.98 on day 42) is recorded as “No statistical significant difference; also recorded: no statistically significant clinical response”. Moreover, the “objective response rates between treatment groups” value in [3] (Table S7) is “No substantial differences”. The “subjects with ≥15% lesional response by CAILS” value in series [3] (bimiralisib group (n = 9), day 42) is “Three”. Moreover, in series [3] (bimiralisib group, by CAILS), the clinical response classification entry was “stable disease”. In addition, in series [3] (day 42, once daily, 95% CI −3.3–3.4, p = 0.9820), the “difference in change from baseline in CAILS, bimiralisib vs placebo” value came out at 0.0. In series [3] (target lesions), the “skin perfusion (LSCI), blood flow (OCT), erythema and roughness by 3D multispectral imaging” value is reported as “no improvement”. The “acne at the application site, subjects” value in series [4] (bimiralisib area, n = 3) is recorded as 50%. In addition, the “LIGS scores, bimiralisib vs placebo areas” value in [4] (full course) was “comparable”. In series [4] (n = 6, each subject received both bimiralisib and placebo areas), the “subjects with one or more adverse events” value is given as 100%. The “dryness at the application site, subjects” value in series [4] (reported for both placebo- and bimiralisib-treated areas) was determined as 83.3%. In series [5] (Figure 5, single HV and single MF patient, MALDI-MSI), the “exposure in papillary dermis, lower than in epidermis” value is listed as “approximately 10 fold”. The concentration at 6 h in [5] (day 42/84, 6 h after last application, read-out: mean cutaneous concentration in skin punch biopsies) is 5300 ng/g; in series [5] (day 42/84, read-out: cutaneous concentration in skin punch biopsies, range), 300 to 30200 ng/g; in [8] (skin punch biopsy (epidermis), epidermis, read-out: mean concentration in skin punch biopsies), 2540 ng/g; in series [8] (skin punch biopsy, read-out: concentration in skin punch biopsies, range), 1030 to 5700 ng/g. The “highest plasma concentration reached” value in series [6] (MF patients) is on record as 18.70 ng/mL. Also, the “mean Cavg in plasma” value is 4.49 ng/mL in series [6] (MF patients, gel 2% once daily, day 42 or 84); 0.96 ng/mL and 0.956 ng/mL in series [7] (HVs, 2 mg/cm^2 gel 2% on 400 cm^2 once daily for 21 days). For the same compound, the “plasma concentrations relative to NOAEL” value in series [6] (MF patients, NOAEL 96.6 ng/mL) is given as “substantially below”. For the same compound, in series [6] (normalized around 200 cm^2/(2 mg/cm^2)), the “mean ratio of normalized plasma concentration, MF patients vs HVs” value was 2.44 fold. Besides, the “increase in normalized plasma concentration, MF patients compared to HVs” value in series [6] (normalized for applied dose and area) is 144%. In addition, in [7] (HVs, topical gel once daily), the “time at which steady state is reached” value is less than 7 days. In addition, the “plasma concentrations relative to human NOAEL” value in series [7] (HVs, NOAEL 96.6 ng/mL) is “detectable but low and substantially below”. For the same compound, the Cmax (usually the peak of the concentration-time curve) in series [7] (human, plasma, 2 mg/cm^2, HVs, topical once daily, read-out: highest Cmax in plasma) was found to be 2.74 ng/mL. Besides, the AUC(0-t) in series [7] (human, plasma, after 14 days of once-daily gel, read-out: highest AUC(0-24h)) was determined as 40 ng·h/mL; in [7] (human, plasma, day 7, read-out: mean AUC(0-24 h)), 21.3 ng·h/mL; in [7] (human, plasma, day 14, read-out: mean AUC(0-24 h)) it was 22.2 ng·h/mL. Further, the Kp at 6 h in series [8] (read-out: mean ratio skin/plasma concentration) was 3050; in series [8] (read-out: ratio skin/plasma concentration, range) it was 1210 to 7360. In addition, the “exposure in papillary and reticular dermis, lower than in epidermis” value in [8] (part A skin punch biopsies) was “approximately 10 fold”. Moreover, the “local exposure in epidermis relative to IC90 of pAKT and pS6” value in series [8] (part A skin punch biopsies, IC90 from ref 31, 32) is “within range of the IC90 of pAKT and pS6”.
As for `CO[C@H]1C[C@@H]2CC[C@@H](C)[C@@](O)(O2)C(=O)C(=O)N2CCCC[C@H]2C(=O)O[C@H]([C@H](C)C[C@@H]2CC[C@@H](OCCO)[C@H](OC)C2)CC(=O)[C@H](C)/C=C(\C)[C@@H](O)[C@@H](OC)C(=O)[C@H](C)C[C@H](C)/C=C/C=C/C=C/1C` [everolimus], in [9], the “antitumor activity in vitro” value is “has antitumor activity in vitro”.
In the case of `C[C@H](Nc1ncnc2nc[nH]c12)c1cc2cccc(Cl)c2c(=O)n1-c1ccccc1` [duvelisib], in series [10], the “complete responders by mSWAT” value is listed as 3 and the “partial responders by mSWAT” value is reported as 6.
